Experimental data published in patent US20100196464A1, “ORLISTAT PHARMACEUTICAL FORMULATIONS” (DR. REDDY'S LABORATORIES LIMITED, priority 2007, published 2010).

Experiments:
[1] = physiological pH range; cited from earlier work
[2] = Particle size distribution; format: physicochemical
Text: The term “average particle size” refers to particle sizes represented by D(0.5), wherein 50% of particles in a powder have sizes greater than, and 50% of particles have sizes less than, a specified value.
Various parameters impacting the preparation of solid oral dosage forms include the physical properties of active ingredients as well as those of the final blends of active ingredients with excipients, wherein the physical properties include flow properties, particle sizes (such as determined by sieve analyzers, electrical conductance instruments such as a Coulter counter, and laser light diffraction particle size analyzers such as the instruments available from Malvern Instruments, Ltd., Malvern, Worcestershire, United Kingdom), bulk densities and tapped densities, compressibility indexes, Hausner ratios (determined by USP density apparatus), flow properties (such as determined by Flowdex apparatus), etc.
The percent of particles with different dimensions that exist in a powder is called the particle size distribution. It is represented in certain ways. Particle size is the maximum dimension of a particle, normally expressed in units of μm. Particle size distributions can be expressed in terms of D(0.1), D(0.5), D(0.9) and D [4,3]. The D(0.1), D(0.5) and D(0.9) represent the 10th, median or the 50th percentile, and the 90th percentile of the particle size distribution, respectively. They can be expressed as volume, weight, or surface percentages. For example when measured by volume, D(0.1), D(0.5), D(0.9) is a value of the distribution such that 10%, 50%, 90% by volume of the particles have a size of this value or less, or is the percentage of particles smaller than that size. D(0.5) is also known as median diameter of particle. It is one of the important parameters representing characteristics of particle of powder. For a sample, if D(0.5)=5 μm, it means that 50% of the particles are smaller than 5 μm. Similarly, if D(0.1)=5 μm, 10% by volume of the particles are less than or equal to 5 μm, and if D(0.9)=5 μm, 90% of the particles are less than or equal to 5 μm. D[4,3] is the volume moment mean of the particles or the volume weighted particle size.

[3] = cited from earlier work
[4] = Bulk density and tapped density; format: physicochemical; conditions: orlistat used in the formulation of Example 6
Text: Other important physicochemical characteristics of powders are the density properties such as bulk and tapped density, weight variation and flow properties such as angle of repose. Bulk density is the undisturbed packing density of that substance and tapped bulk density relates to the packing density after tapping a bed of substance until no change in the packing density is seen. Bulk density and tapped density, can be determined using compendial bulk density apparatus, such as the method given in Test 616 “Bulk Density and Tapped Density,” United States Pharmacopeia 29, United States Pharmacopeial Convention, Inc., Rockville, Md., 2005 (“USP”). Weight variation can be determined using the method given in United States Pharmacopeia 29.

[5] = orlistat used in the formulation of Example 1
[6] = orlistat used in the formulation of Example 6

## CCCCCCCCCCC[C@@H](C[C@@H]1OC(=O)[C@H]1CCCCCC)OC(=O)[C@H](CC(C)C)NC=O [Orlistat, (S)-1-[[(2S,3S)-3-hexyl-4-oxo-2-oxetanyl]methyl]-dodecyl ester]
[1]
  pKa: no pKa within the physiological pH range
[2]; [5]
  D(0.1): 1.8 μm
  D(0.5): 8.6 μm
  D(0.9): 24.5 μm
[2]; [6]
  D(0.1): 18.7 μm
  D(0.5): 84.2 μm
  D(0.9): 171.8 μm
[3]; chloroform
  Solubility in chloroform: freely soluble
[3]; ethanol
  Solubility in ethanol: very soluble
[3]; methanol
  Solubility in methanol: very soluble
[3]; water
  Solubility in water: practically insoluble
[4]
  Bulk density: 0.424 g/mL
  Tapped density: 0.571 g/mL
